Test results from paper PMC9351465, “Mechanism-based heparanase inhibitors reduce cancer metastasis in vivo” (Proceedings of the National Academy of Sciences of the …, 2022).
Where “and” joins values, the source holds several entries; their conditions need not be identical. Equal values may be shown once. Entries after “also recorded” stand apart in the source; their conditions may differ.

Key:
BpHep and AcGH79 = type: biochemical, Burkholderia pseudomallei; Acidobacterium capsulatum; conditions: recombinant enzymes, competition with ABP 7
HPSE [1] = molecular target: T1, HPSE (Homo sapiens, UniProt Q9Y251); experiment: competitive activity-based protein profiling (cABPP) with ABP 7, recombinant HPSE; conditions: recombinant HPSE 20 nM, 1 h preincubation at 37°C, then 100 nM ABP 7, pH 5.5
T1 sequence (Q9Y251 158-543 limits assumed): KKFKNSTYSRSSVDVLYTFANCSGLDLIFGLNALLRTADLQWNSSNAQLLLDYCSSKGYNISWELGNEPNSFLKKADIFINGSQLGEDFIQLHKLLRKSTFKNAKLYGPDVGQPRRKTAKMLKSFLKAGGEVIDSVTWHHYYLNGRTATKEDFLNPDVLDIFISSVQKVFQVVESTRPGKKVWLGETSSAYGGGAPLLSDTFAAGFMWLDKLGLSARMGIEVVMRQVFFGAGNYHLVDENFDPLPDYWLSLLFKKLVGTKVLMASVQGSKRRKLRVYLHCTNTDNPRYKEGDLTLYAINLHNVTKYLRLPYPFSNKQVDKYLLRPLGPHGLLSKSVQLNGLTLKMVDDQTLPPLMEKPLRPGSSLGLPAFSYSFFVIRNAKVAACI
T1 sequence (Q9Y251 36-109 limits assumed): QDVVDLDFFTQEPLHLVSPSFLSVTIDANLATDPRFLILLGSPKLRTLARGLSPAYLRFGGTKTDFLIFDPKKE

HPSE [2] = molecular target: T1, HPSE; experiment: colorimetric fondaparinux cleavage assay; type: biochemical
Protocol: We next investigated the ability of our inhibitors to abrogate HPSE processing of its native oligosaccharide substrates, using a colorimetric assay that detects cleavage of the synthetic HS pentasaccharide fondaparinux ([49]). […]
Fondaparinux cleavage was performed essentially as previously described (9). Briefly, assays were carried out in 96 well plates (Nunc) pretreated with 4% BSA in TBS-T (20 mM Tris pH 7.4, […]
100 µL reactions were set up in 40 mM NaOAc pH 5.0 buffer, containing final concentrations of 200 ng/mL HPSE, 100 µM Fondaparinux (Arixtra) and specified concentrations of inhibitors.
Reactions were incubated at 37°C for 18 h, then quenched with 100 µL 0.1 M NaOH supplemented with 1.7 mM WST-1 tetrazolium salt, and incubated at 60°C for 1 h. Absorbance at 584 nm was read using an ELISA plate reader (BIO-TEK Instruments). All reactions were carried out in technical duplicate. Data were plotted and analyzed using Sigmaplot (Systat). […]

U87 glioblastoma cells = experiment: Matrigel invasion assay; type: cell-based, human; conditions: 20 µM inhibitor, 4 h
Protocol: Preliminary in cellulo evaluations of our inhibitors’ effects on cancer aggression were conducted using a Matrigel invasion assay, which measures the ability of cells to migrate through transwell inserts coated with the ECM material Matrigel. Matrigel invasion by cells requires a broad complement of proteases and glycosidases, thereby mimicking some aspects of metastasis in vivo ([51]).
(§1) For HS-degradation assays, ECM coated dishes were incubated with 200 ng recombinant HPSE in 1 mL reaction mixture (10 mM buffer Phosphate-Citrate pH 6.0, 50 mM NaCl, 1 mM DTT, 1 mM CaCl2) containing HPSE inhibitors or DMSO control. Plates were incubated at 37°C for 5 h, then assay medium collected and applied to a 0.9×30 cm Sepharose 6B size exclusion column. The Sepharose 6B column was eluted with PBS, and 35S radioactivity of 0.2 mL fractions quantitated using a liquid scintillation analyzer (Packard BioScience) (11). […]
Cells in the upper chamber were separated by Matrigel from a lower chamber containing 600 µL DMEM, supplemented with 10% FBS. […] 10 randomly selected microscopic fields were recorded, and cell invasion calculated using ImageJ, by quantitating the percentage of the field stained by crystal violet. […]

human platelet HPSE = molecular target: T2, human platelet HPSE (Homo sapiens, UniProt Q9Y251); experiment: cABPP of human platelet lysates, HPSE band
T2 sequence (Q9Y251 158-543 limits assumed): T1 sequence (Q9Y251 158-543 limits assumed)
T2 sequence (Q9Y251 36-109 limits assumed): T1 sequence (Q9Y251 36-109 limits assumed)

HPSE [3] = molecular target: T1, HPSE; experiment: H35SPG basement membrane (ECM) digest by recombinant HPSE; type: biochemical; conditions: for inhibition of recombinant HPSE-mediated H35SPG cleavage: 200 ng HPSE, pH 6.0, 37°C, 5 h
Description: Finally, we assessed our inhibitors against HPSE-mediated degradation of bona fide HSPGs in an ECM environment. Cultured bovine corneal endothelial cells secrete a subendothelial basement membrane material rich in proteoglycans, which can be radiolabeled by growth in the presence of ^35SO4^2− ([50]). Solubilized H^35S chains released from H^35SPGs by HPSE digestion can be resolved chromatographically, with HPSE inhibition leading to a corresponding loss of signal. […] We also tested inhibition of endogenous cellular HPSE using this assay format. […]
ECM coated 35 mm culture dishes containing 35S labelled HS were prepared as previously described (10). Briefly, bovine corneal endothelial cells were plated at an initial density of 2x10^5 cells/ml, with 4% dextran T-40 (Sigma) included in the growth medium. Na235SO4 (25 µCi/ml) was added to the incubation medium on days 2 and 5 after seeding. On day 12, subendothelial ECM is exposed by dissolving the cells with PBS containing 0.5% Triton X-100 and 20 mM NH4OH, followed by four washes with PBS.
as §1
Matrigel and […]
non-migrating cells in the upper side of the Boyden filter were removed by swabbing, then invading cells on the bottom side of the transwell filter imaged for analysis. […]
B16 melanoma - Twenty minutes before tumor cell inoculation, C57BL/J6 mice (n=5) were injected intraperitoneally with vehicle alone (PBS), compound 2 (300 nmol/mouse), or SST0001 (150 µg/mouse). Mice were subsequently intravenously inoculated with 1.5x105

GUSB = molecular target: T3, GUSB (Homo sapiens, UniProt P08236); experiment: cABPP of human platelet lysates, GUSB band; conditions: human platelet lysates containing both HPSE and GUSB
T3 sequence (P08236 23-651): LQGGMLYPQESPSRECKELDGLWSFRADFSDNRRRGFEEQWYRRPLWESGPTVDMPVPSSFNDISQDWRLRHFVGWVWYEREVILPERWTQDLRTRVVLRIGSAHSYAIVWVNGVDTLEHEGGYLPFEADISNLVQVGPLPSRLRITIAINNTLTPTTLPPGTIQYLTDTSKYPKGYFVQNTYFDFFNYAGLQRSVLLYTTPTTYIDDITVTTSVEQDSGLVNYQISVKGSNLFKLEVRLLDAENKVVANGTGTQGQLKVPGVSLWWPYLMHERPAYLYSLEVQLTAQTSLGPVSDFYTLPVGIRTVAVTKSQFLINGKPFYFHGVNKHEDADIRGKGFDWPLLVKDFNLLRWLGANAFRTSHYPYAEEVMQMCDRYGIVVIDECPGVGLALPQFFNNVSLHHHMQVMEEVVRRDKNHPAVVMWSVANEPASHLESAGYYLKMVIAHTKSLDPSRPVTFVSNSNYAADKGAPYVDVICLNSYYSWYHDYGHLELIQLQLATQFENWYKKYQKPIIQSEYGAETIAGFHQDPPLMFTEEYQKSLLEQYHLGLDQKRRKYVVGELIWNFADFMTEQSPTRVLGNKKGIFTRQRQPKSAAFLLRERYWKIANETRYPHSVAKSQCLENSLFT

[4] = molecular target: exo-β-glucuronidase EcGUSB (Escherichia coli, UniProt P05804); experiment: cABPP with ABP 7, recombinant EcGUSB; conditions: competition with ABP 7

N[C@H]1[C@@H](O[C@H]2[C@H](O)[C@@H](O)[C@@H]3O[C@@H]3[C@@H]2C(=O)O)O[C@H](CO)[C@@H](O)[C@@H]1O [compound 5]
inhibition of BpHep and AcGH79 (cABPP) (BpHep and AcGH79): all compounds apart from 5 showing activity | HPSE inhibition (cABPP) (HPSE [1]): weaker inhibition

CC(=O)N[C@H]1[C@@H](O[C@H]2[C@H](O)[C@@H](O)[C@@H]3O[C@@H]3[C@@H]2C(=O)O)O[C@H](COS(=O)(=O)O)[C@@H](O)[C@@H]1O [compound 3]
IC50 (HPSE [2]; 200 ng/mL HPSE, 100 µM fondaparinux, pH 5.0, 37°C, 18 h, n = 2, read-out: IC50, HPSE-mediated fondaparinux cleavage): 520 nM and ~510 nM | Matrigel invasion (% field stained) (U87 glioblastoma cells): significantly reduced Matrigel invasion | IC50 (human platelet HPSE; HPSE IC50, human platelet lysates, cABPP, n = 3): ~60 nM and 56 nM | selectivity of HPSE inhibition in platelet lysates (human platelet HPSE; human platelet lysates containing both HPSE and GUSB): highly selective inhibition of human platelet HPSE | HPSE inhibition (cABPP) (HPSE [1]): nanomolar HPSE inhibition potencies; also recorded: greater potency than 2 and 4 | inhibition of recombinant HPSE-mediated H35SPG cleavage (HPSE [3]): robust, dose-dependent inhibition | level of inhibition of H35SPG cleavage relative to 4.6 μM 10 (HPSE [3]; 1 μM 2 or 3 compared to 4.6 μM 10): comparable levels of inhibition

O=C(O)[C@@H]1[C@@H](O[C@H]2O[C@H](CO)[C@@H](O)[C@H](O)[C@H]2O)[C@H](O)[C@@H](O)[C@@H]2O[C@@H]21 [compound 4]
HPSE inhibition (cABPP) (HPSE [1]): nanomolar HPSE inhibition potencies

O=C(O)[C@@H]1[C@@H](O)[C@H](O)[C@@H](O)[C@@H]2O[C@@H]21 [compound 1, glucuronyl-cyclophellitol]
HPSE inhibition, fondaparinux cleavage (HPSE [2]; at 50 μM): Little HPSE inhibition | selectivity of GUSB inhibition in platelet lysates (GUSB): exclusively inhibited GUSB | EcGUSB inhibition (cABPP) [4]: inhibited | HPSE inhibition (cABPP) (HPSE [1]): ineffective HPSE inhibitor up to 10 μM | inhibition of recombinant HPSE-mediated H35SPG cleavage (HPSE [3]): no HPSE inhibition was observed
